Experimental data published in BigSolDB 2.1.

Cc1ccc(C)c(O)c1
Conditions | solubility (mole fraction)
in ethyl acetate, 282.85 K | 0.414
in ethyl acetate, 289.95 K | 0.449
in ethyl acetate, 298.45 K | 0.494
in ethyl acetate, 304.35 K | 0.529
in ethyl acetate, 309.95 K | 0.563
in ethyl acetate, 314.75 K | 0.596
in ethyl acetate, 329.05 K | 0.713
in methanol, 281.05 K | 0.273
in methanol, 284.75 K | 0.291
in methanol, 289.15 K | 0.315
in methanol, 293.75 K | 0.342
in methanol, 299.45 K | 0.381
in methanol, 305.85 K | 0.425
in methanol, 307.25 K | 0.435
in methanol, 314.25 K | 0.492
in methanol, 317.25 K | 0.522
in methanol, 321.15 K | 0.563
in n-butanol, 281.15 K | 0.308
in n-butanol, 285.65 K | 0.331
in n-butanol, 289.9 K | 0.354
in n-butanol, 294.45 K | 0.38
in n-butanol, 298.9 K | 0.408
in n-butanol, 304.95 K | 0.449
in n-butanol, 311.65 K | 0.501
in n-butanol, 317.25 K | 0.551
in n-butanol, 322.75 K | 0.608
in n-butanol, 331.2 K | 0.706
in n-hexanol, 282.6 K | 0.325
in n-hexanol, 288.75 K | 0.356
in n-hexanol, 293.25 K | 0.378
in n-hexanol, 296.65 K | 0.4
in n-hexanol, 300.35 K | 0.424
in n-hexanol, 310.75 K | 0.498
in n-hexanol, 321.65 K | 0.598
in n-hexanol, 326.55 K | 0.652
in n-hexanol, 331.05 K | 0.707
in n-hexanol, 335.35 K | 0.764
